{"source": "patent US6127136A", "about": "“Detection of dioxin-like compounds by detection of transformed Ah receptor/ARNT complex” (Paracelsian, Inc., priority 1996, dated 2000)", "biological_target": "transformed Ah receptor/ARNT complex (Cavia porcellus, UniProt Q6J287)", "sequence (Q6J287 1-846)": "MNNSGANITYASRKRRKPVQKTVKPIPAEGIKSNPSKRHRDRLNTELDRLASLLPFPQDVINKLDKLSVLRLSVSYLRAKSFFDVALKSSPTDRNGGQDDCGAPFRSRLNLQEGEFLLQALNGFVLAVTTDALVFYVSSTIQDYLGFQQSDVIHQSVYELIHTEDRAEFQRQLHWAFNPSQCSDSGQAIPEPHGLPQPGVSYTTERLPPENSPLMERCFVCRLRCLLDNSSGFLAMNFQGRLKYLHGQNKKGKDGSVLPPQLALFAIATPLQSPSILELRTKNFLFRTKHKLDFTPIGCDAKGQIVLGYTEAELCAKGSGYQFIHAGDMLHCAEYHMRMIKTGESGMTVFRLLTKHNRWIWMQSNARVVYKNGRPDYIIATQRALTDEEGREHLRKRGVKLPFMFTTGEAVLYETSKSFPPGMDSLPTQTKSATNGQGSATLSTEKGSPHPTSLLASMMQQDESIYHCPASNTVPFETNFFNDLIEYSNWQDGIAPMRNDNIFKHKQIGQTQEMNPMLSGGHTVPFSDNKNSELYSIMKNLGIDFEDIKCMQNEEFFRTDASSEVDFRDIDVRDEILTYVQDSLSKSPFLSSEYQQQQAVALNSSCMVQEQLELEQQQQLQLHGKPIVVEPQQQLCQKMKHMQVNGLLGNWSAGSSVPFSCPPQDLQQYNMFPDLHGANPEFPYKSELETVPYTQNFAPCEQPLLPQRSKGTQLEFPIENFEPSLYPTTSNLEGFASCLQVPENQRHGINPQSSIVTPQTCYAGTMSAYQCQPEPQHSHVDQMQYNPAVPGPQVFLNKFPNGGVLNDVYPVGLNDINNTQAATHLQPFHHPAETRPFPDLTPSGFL", "sequence (Q0WXX3 1-790 partner)": "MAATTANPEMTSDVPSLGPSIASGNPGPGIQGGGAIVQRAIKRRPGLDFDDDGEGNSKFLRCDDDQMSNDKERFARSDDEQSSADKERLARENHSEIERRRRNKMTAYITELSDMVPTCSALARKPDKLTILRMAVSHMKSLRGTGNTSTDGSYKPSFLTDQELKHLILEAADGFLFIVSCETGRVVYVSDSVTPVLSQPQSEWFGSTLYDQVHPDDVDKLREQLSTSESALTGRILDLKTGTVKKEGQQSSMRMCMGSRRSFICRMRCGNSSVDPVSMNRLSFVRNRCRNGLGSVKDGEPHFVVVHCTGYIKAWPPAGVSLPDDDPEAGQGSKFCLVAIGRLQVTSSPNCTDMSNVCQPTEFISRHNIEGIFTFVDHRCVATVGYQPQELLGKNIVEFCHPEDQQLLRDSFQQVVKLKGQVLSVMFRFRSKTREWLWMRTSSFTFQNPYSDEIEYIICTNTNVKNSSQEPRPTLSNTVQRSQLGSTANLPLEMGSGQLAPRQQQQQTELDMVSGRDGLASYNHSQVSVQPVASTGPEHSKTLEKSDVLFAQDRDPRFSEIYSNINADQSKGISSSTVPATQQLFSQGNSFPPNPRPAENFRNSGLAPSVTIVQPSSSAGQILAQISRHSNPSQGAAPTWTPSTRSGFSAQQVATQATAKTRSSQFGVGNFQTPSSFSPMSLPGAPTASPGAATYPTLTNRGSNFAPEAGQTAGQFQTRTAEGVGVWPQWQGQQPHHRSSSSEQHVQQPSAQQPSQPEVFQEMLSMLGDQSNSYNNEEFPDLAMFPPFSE", "experiment": "Ah-ELISA, optimization of salt concentration", "type": "biochemical, guinea pig (hepatic cytosol)", "design": "from tissue; host or cells: hepatic cytosol of male Hartley guinea pigs (animals from Cornell Research Animal Resources)", "procedure": "The reagents and ELISA plate were prepared as described in Example 7, except the anti-Rabbit/alkaline phosphatase (Sigma, St. Louis, Mo.) was prepared to make a 1:4000 dilution. The final DRE dilution was 31.2 pmol per well. The final dilution of anti-ARNT was 0.275 ug per mL. The DRE was 1/32 of the highest dilution, which corresponds to a final dilution of 0.25 nmol/uL hybridized DRE x 10.6 uL DRE/1700 uL cytosol or 31.2 pmol per well. All other concentrations were the same. All assays were run at approximately 30° C.\nThe salt concentration during cytosol incubation was varied from 150 mM to 255 mM NaCl at 15 mM increments with a 0 mM NaCl control for with either DMSO or TCDD to determine the effect of salt concentration on background detection. Thus, the assay was run on samples with DMSO (-) or TCDD (+) added at the concentrations taught in Example 7."}
{"smiles": "Clc1cc2c(cc1Cl)Oc1cc(Cl)c(Cl)cc1O2", "note": "[TCDD, 2,3,7,8-tetrachlorodibenzo-p-dioxin]", "values": [{"measurement": "DIFF", "setting": "0 mM NaCl", "value": 1879}, {"measurement": "RATIO", "setting": "0 mM NaCl", "value": 6.298}, {"measurement": "ELISA signal (+)", "setting": "0 mM NaCl, TCDD (+)", "value": 2233}, {"measurement": "DIFF", "setting": "150 mM NaCl", "value": 2587}, {"measurement": "RATIO", "setting": "150 mM NaCl", "value": 18.03}, {"measurement": "ELISA signal (+)", "setting": "150 mM NaCl, TCDD (+)", "value": 2739}, {"measurement": "DIFF", "setting": "165 mM NaCl", "value": 2625}, {"measurement": "RATIO", "setting": "165 mM NaCl", "value": 21}, {"measurement": "ELISA signal (+)", "setting": "165 mM NaCl, TCDD (+)", "value": 2756}, {"measurement": "DIFF", "setting": "180 mM NaCl", "value": 2661}, {"measurement": "RATIO", "setting": "180 mM NaCl", "value": 25.96}, {"measurement": "ELISA signal (+)", "setting": "180 mM NaCl, TCDD (+)", "value": 2767}, {"measurement": "DIFF", "setting": "195 mM NaCl", "value": 2609}, {"measurement": "RATIO", "setting": "195 mM NaCl", "value": 26.35}, {"measurement": "ELISA signal (+)", "setting": "195 mM NaCl, TCDD (+)", "value": 2712}, {"measurement": "DIFF", "setting": "210 mM NaCl", "value": 2215}, {"measurement": "RATIO", "setting": "210 mM NaCl", "value": 26.29}, {"measurement": "ELISA signal (+)", "setting": "210 mM NaCl, TCDD (+)", "value": 2303}, {"measurement": "DIFF", "setting": "225 mM NaCl", "value": 1697}, {"measurement": "RATIO", "setting": "225 mM NaCl", "value": 21.89}, {"measurement": "ELISA signal (+)", "setting": "225 mM NaCl, TCDD (+)", "value": 1779}, {"measurement": "DIFF", "setting": "240 mM NaCl", "value": 1333}, {"measurement": "RATIO", "setting": "240 mM NaCl", "value": 16.76}, {"measurement": "ELISA signal (+)", "setting": "240 mM NaCl, TCDD (+)", "value": 1418}, {"measurement": "DIFF", "setting": "255 mM NaCl", "value": 1109}, {"measurement": "RATIO", "setting": "255 mM NaCl", "value": 12.07}, {"measurement": "ELISA signal (+)", "setting": "255 mM NaCl, TCDD (+)", "value": 1210}, {"measurement": "DIFF", "setting": "column S9", "value": 86.67}, {"measurement": "RATIO", "setting": "column S9", "value": 1.667}, {"measurement": "ELISA signal (+)", "setting": "column S9, TCDD (+)", "value": 216.6}, {"measurement": "salt concentration giving best ratio of background to detection of TCDD", "setting": "during cytosol incubation", "value": "180-195 mM NaCl"}]}
